In experiment [1] the target is T1, Suppressor of tumorigenicity 14 protein (Homo sapiens, UniProt Q9Y5Y6).
T1 sequence (Q9Y5Y6 whole entry): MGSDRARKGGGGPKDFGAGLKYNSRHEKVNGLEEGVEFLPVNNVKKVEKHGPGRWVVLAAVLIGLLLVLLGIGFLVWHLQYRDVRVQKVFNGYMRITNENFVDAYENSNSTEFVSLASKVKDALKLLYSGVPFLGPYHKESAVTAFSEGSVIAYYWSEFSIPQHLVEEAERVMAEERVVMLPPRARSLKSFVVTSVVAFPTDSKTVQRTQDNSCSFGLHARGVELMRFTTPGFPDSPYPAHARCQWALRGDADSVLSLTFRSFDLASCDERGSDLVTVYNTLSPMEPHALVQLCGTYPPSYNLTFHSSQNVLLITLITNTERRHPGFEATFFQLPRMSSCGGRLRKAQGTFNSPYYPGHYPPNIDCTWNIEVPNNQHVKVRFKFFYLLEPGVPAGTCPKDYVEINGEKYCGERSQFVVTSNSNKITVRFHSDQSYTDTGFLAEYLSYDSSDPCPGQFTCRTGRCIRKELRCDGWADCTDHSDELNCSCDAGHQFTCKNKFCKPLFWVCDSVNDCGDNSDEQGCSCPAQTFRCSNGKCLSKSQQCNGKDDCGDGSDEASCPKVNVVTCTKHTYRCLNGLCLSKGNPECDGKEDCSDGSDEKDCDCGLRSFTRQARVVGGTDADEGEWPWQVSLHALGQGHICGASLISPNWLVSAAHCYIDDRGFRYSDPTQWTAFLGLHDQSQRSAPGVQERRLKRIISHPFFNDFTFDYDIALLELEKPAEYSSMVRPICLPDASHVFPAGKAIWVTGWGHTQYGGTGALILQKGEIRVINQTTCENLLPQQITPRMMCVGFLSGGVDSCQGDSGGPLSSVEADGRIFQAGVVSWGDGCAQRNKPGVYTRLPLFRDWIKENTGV
The experiment in a line: Tight binding inhibition of human matriptase expressed in Drosophila melanogaster S2 cells using Boc-QAR-AMC as substrate incubated for 15 mins prior to substrate addition measured for 30 mins by fluorimetric analysis.

In experiment [2] the target is T1, Suppressor of tumorigenicity 14 protein. The experiment in a line: Mixed inhibition of human matriptase expressed in Drosophila melanogaster S2 cells using Boc-QAR-AMC as substrate by fluorimetric analysis.
Experiment [3] has as its target T2, Transmembrane protease serine 6 (Homo sapiens, UniProt Q8IU80).
T2 sequence (Q8IU80 whole entry): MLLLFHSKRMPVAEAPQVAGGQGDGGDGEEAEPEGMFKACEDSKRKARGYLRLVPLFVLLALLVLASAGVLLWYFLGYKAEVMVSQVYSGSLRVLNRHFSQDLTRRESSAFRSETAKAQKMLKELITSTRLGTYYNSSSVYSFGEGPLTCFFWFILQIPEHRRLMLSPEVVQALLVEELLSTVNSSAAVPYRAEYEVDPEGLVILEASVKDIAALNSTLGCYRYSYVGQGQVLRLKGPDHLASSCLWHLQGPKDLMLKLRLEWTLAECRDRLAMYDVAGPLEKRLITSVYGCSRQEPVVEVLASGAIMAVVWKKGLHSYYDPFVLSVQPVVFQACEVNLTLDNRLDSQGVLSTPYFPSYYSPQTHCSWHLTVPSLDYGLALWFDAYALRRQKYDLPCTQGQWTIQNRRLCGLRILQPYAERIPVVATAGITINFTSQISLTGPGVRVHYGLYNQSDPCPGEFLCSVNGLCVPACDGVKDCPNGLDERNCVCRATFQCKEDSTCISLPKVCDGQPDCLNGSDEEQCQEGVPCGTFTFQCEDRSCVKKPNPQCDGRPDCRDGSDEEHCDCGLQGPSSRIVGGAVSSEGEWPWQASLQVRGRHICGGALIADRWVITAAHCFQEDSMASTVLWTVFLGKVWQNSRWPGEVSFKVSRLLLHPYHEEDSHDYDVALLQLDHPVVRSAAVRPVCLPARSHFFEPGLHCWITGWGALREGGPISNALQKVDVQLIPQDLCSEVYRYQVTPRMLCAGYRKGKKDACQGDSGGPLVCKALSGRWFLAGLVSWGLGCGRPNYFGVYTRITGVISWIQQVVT
The experiment is described as follows: Tight binding inhibition of human matriptase2 expressed in Drosophila melanogaster S2 cells using Boc-QAR-AMC as substrate incubated for 15 mins prior to substrate addition measured for 30 mins by fluorimetric analysis.

Experiment [4] addresses T3, Transmembrane protease serine 11D (Homo sapiens, UniProt O60235).
T3 sequence (O60235 whole entry): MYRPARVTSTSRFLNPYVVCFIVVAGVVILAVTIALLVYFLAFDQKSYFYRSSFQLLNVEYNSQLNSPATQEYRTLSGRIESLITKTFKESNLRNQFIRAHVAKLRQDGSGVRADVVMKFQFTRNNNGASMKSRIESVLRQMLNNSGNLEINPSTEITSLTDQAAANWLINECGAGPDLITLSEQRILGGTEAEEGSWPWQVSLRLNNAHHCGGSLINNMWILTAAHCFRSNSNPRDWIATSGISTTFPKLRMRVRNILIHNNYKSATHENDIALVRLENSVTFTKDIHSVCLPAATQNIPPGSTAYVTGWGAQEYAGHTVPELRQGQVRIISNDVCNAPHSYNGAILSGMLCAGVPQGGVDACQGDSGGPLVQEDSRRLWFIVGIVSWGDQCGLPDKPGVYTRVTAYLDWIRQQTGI
The experiment in a line: Tight binding inhibition of human TMPRSS11D expressed in Drosophila melanogaster S2 cells using Boc-QAR-AMC as substrate incubated for 15 mins prior to substrate addition measured for 30 mins by fluorimetric analysis.

A further experiment deals with Trypsin (Homo sapiens, UniProt P07477+P07478+P35030). The experiment is described as follows: Tight binding inhibition of human trypsin expressed in Drosophila melanogaster S2 cells using Boc-QAR-AMC as substrate incubated for 15 mins prior to substrate addition measured for 30 mins by fluorimetric analysis.
A further experiment deals with Prothrombin (Homo sapiens, UniProt P00734). The experiment in a line: Mixed inhibition of human thrombin expressed in Drosophila melanogaster S2 cells using Boc-QAR-AMC as substrate by fluorimetric analysis.
For the next experiment, the target named is Furin (Homo sapiens) (UniProt P09958). The experiment in a line: Inhibition of human furin expressed in Drosophila melanogaster S2 cells using Boc-RRVR-AMC as substrate at 10 uM.
Chain of Furin (Homo sapiens) (P09958 whole entry): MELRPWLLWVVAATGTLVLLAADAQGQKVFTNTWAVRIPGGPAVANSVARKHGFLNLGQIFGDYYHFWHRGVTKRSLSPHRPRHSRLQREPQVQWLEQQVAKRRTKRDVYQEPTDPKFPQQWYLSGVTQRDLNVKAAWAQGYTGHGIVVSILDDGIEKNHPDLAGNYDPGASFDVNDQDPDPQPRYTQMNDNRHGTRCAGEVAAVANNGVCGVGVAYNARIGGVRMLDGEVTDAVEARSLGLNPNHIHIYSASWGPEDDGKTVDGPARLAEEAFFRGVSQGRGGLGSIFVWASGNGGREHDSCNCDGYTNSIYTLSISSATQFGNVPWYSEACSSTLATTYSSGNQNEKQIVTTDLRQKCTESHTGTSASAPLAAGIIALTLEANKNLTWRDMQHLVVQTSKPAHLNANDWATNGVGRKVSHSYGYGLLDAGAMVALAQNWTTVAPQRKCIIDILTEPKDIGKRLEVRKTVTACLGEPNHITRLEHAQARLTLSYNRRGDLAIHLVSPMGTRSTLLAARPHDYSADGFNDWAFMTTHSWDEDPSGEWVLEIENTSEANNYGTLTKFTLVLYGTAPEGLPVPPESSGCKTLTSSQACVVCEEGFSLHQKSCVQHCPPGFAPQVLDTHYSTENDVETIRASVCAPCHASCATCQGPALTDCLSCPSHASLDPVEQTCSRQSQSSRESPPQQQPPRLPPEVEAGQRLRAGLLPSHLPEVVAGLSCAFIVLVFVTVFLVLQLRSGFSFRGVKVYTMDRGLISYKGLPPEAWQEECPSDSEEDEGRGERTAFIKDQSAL
The target in experiment [5] is T4, Suppressor of tumorigenicity 14 protein (Homo sapiens) (UniProt Q9Y5Y6).
T4 sequence (whole entry): T1 sequence (Q9Y5Y6 whole entry)
Particulars: S2, 2.5 nM.
Description: Inhibition of human matriptase expressed in Drosophila melanogaster S2 cells using Boc-QAR-AMC as substrate at 2.5 nM by fluorimetric analysis

Experiment [6] addresses T4, Suppressor of tumorigenicity 14 protein (Homo sapiens). The experiment is described as follows: Irreversible inhibition of human matriptase expressed in Drosophila melanogaster S2 cells using Boc-QAR-AMC as substrate incubated for 20 mins prior to substrate addition measured for 75 mins by fluorimetric analysis.

The source made the active and inactive calls. The rule behind the calls is not given here. Where a SMILES comes first, the peptide text is derived from it. The star is where a group is joined. CH2Cl = ClC*

As to `C[C@H](N)C(=O)N[C@@H](CCCN=C(N)N)C(=O)c1nc2ccccc2s1`, the affinity in experiment [1] corresponds to a Ki of 1.4 nM.

The compound `C[C@H](NC(=O)[C@H](CCC(N)=O)NC(=O)[C@@H](N)CCCNC(=N)N)C(=O)N[C@@H](CCCNC(=N)N)C(O)c1nc2ccccc2s1` (mixture of isomers) returned a Ki in experiment [2] of 6120 nM.

On to `N=C(N)NCCC[C@H](N)C(=O)c1nc2ccccc2s1`, for which the Ki in [2] is 457 nM.

In the case of `C[C@H](NC(=O)[C@H](CCC(N)=O)NC(=O)[C@@H](N)CCCNC(=N)N)C(=O)N[C@@H](CCCNC(=N)N)C(=O)c1nc2ccccc2s1`, the Ki in [3] was determined as 3.3 nM; in [4], 8.4 nM; at Trypsin it was 0.97 nM; at Prothrombin, 637 nM. Further, the inhibition entry on Furin (Homo sapiens) is “inactive”. The inhibition result in [5] was “Active”.

Take `N=C(N)NCCC[C@H](NC(=O)CNC(=O)[C@@H](N)CCC(=O)O)C(=O)CCl` (H-Glu-Gly-Arg-CH2Cl): the inhibition entry in experiment [6] was “Active”.

As a reminder, the Ki is the equilibrium dissociation constant of an inhibitor or competing ligand from its target.

These data come from ChEMBL document CHEMBL2086329, “Design and synthesis of potent, selective inhibitors of matriptase” (ACS Med Chem Lett, 2012).
